From ChEMBL document CHEMBL1201861, “Genomics of Drug Sensitity in Cancer screening data, Wellcome Trust Sanger Institute”

How the values were obtained:
CAL-120 = assay: cells; format: functional, cell-based; conditions: Homo sapiens;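 also: cell growth inhibition, read out as cell viability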
Description: SANGER: Inhibition of human CAL-120 cell growth in a cell viability assay.

CAMA-1 = assay: cells; format: functional, cell-based; conditions: Homo sapiens;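 also: growth inhibition of CAMA-1 cells, read out with a cell viability assay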
Description: SANGER: Inhibition of human CAMA-1 cell growth in a cell viability assay.

DBTRG-05MG = assay: cells; format: functional, cell-based; conditions: Homo sapiens;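 also: cell viability assay measuring growth inhibition of human DBTRG-05MG cells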
Description: SANGER: Inhibition of human DBTRG-05MG cell growth in a cell viability assay.

CAL-12T = assay: cells; format: functional, cell-based, Homo sapiens; conditions: Homo sapiens, CAL-12T;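 also: growth inhibition of human CAL-12T cells, read out with a cell viability assay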
Description: SANGER: Inhibition of human CAL-12T cell growth in a cell viability assay.

SW1783 = assay: cells; format: functional, cell-based; conditions: Homo sapiens
Description: SANGER: Inhibition of human SW1783 cell growth in a cell viability assay.

SNU-387 = assay: cells; format: functional, cell-based; conditions: Homo sapiens
Description: SANGER: Inhibition of human SNU-387 cell growth in a cell viability assay.

OPM-2 = assay: cells; format: functional, cell-based; conditions: Homo sapiens;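 also: growth of OPM-2 cells measured with a viability assay, IC50 for suppression of proliferation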
Description: SANGER: Inhibition of human OPM-2 cell growth in a cell viability assay.

BOKU = assay: cells; format: functional, cell-based; conditions: Homo sapiens;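 also: growth inhibition of the human BOKU cell line, read out by a cell viability assay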
Description: SANGER: Inhibition of human BOKU cell growth in a cell viability assay.

RPMI-2650 = assay: cells; format: functional, cell-based; conditions: Homo sapiens
Description: SANGER: Inhibition of human RPMI-2650 cell growth in a cell viability assay.

U2OS = assay: cells; format: functional, cell-based, U-2-OS; conditions: Homo sapiens;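 also: growth inhibition of human U-2-OS cells, determined with a cell viability assay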
Description: SANGER: Inhibition of human U-2-OS cell growth in a cell viability assay.

SW-620 = assay: cells; format: functional, cell-based; conditions: Homo sapiens;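 also: growth inhibition of human SW-620 cells, measured by a cell viability assay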
Description: SANGER: Inhibition of human SW620 cell growth in a cell viability assay.

TE-15 = assay: cells; format: functional, cell-based; conditions: Homo sapiens;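 also: cell viability readout of growth inhibition in TE-15 cells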
Description: SANGER: Inhibition of human TE-15 cell growth in a cell viability assay.

EVSA-T = assay: cells; format: functional, cell-based; conditions: Homo sapiens;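 also: growth inhibition of EVSA-T cells, read out with a cell viability assay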
Description: SANGER: Inhibition of human EVSA-T cell growth in a cell viability assay.

OVCAR-8 = assay: cells; format: functional, cell-based; conditions: Homo sapiens;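 also: growth inhibition of human OVCAR-8 cells, read out by a cell viability assay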
Description: SANGER: Inhibition of human OVCAR-8 cell growth in a cell viability assay.

LCLC-103H cell line = assay: cells; format: functional, cell-based; conditions: Homo sapiens
Description: SANGER: Inhibition of human LCLC-103H cell growth in a cell viability assay.

CAL-148 = assay: cells; format: functional, cell-based; conditions: Homo sapiens
Description: SANGER: Inhibition of human CAL-148 cell growth in a cell viability assay.

LK-2 = assay: cells; format: functional, cell-based; conditions: Homo sapiens;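 also: growth inhibition of LK-2 cells, read out with a viability assay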
Description: SANGER: Inhibition of human LK-2 cell growth in a cell viability assay.

JEG-3 = assay: cells; format: functional, cell-based; conditions: Homo sapiens;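 also: growth inhibition of human JEG-3 cells, read out with a cell viability assay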
Description: SANGER: Inhibition of human JEG-3 cell growth in a cell viability assay.

CAL-85-1 = assay: cells; format: functional, cell-based; conditions: Homo sapiens;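 also: growth inhibition of human CAL-85-1 cells, read out with a cell viability assay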
Description: SANGER: Inhibition of human CAL-85-1 cell growth in a cell viability assay.

MKN-45 = assay: cells; format: functional, cell-based; conditions: Homo sapiens;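 also: growth inhibition of human MKN-45 cells, measured with a cell viability assay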
Description: SANGER: Inhibition of human MKN45 cell growth in a cell viability assay.

SW626 = assay: cells; format: functional, cell-based; conditions: Homo sapiens;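 also: growth inhibition of SW626 cells, measured with a cell viability assay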
Description: SANGER: Inhibition of human SW626 cell growth in a cell viability assay.

SCLC-21H = assay: cells; format: functional, cell-based; conditions: Homo sapiens;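 also: growth inhibition of cultured human SCLC-21H cells, read out with a cell viability assay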
Description: SANGER: Inhibition of human SCLC-21H cell growth in a cell viability assay.

IST-SL2 = assay: cells; format: functional, cell-based; conditions: Homo sapiens;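 also: growth inhibition of human IST-SL2 cells, read out by a cell viability assay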
Description: SANGER: Inhibition of human IST-SL2 cell growth in a cell viability assay.

SK-MEL-24 = assay: cells; format: functional, cell-based; conditions: Homo sapiens;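 also: growth inhibition read out by a cell viability assay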
Description: SANGER: Inhibition of human SK-MEL-24 cell growth in a cell viability assay.

ASPC1 = assay: cells; format: functional, cell-based; conditions: Homo sapiens;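 also: growth inhibition of AsPC-1 cells, read out with a cell viability assay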
Description: SANGER: Inhibition of human AsPC-1 cell growth in a cell viability assay.

TGW = assay: cells; format: functional, cell-based; conditions: Homo sapiens;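 also: growth inhibition of human TGW cells, read out with a cell viability assay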
Description: SANGER: Inhibition of human TGW cell growth in a cell viability assay.

SK-MEL3 = assay: cells; format: functional, cell-based, SK-MEL-3; conditions: Homo sapiens;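 also: growth inhibition of human SK-MEL-3 cells, read out with a cell viability assay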
Description: SANGER: Inhibition of human SK-MEL-3 cell growth in a cell viability assay.

NCI-H2009 = assay: cells; format: functional, cell-based; conditions: Homo sapiens;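 also: cell viability assay measuring inhibition of NCI-H2009 cell growth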
Description: SANGER: Inhibition of human NCI-H2009 cell growth in a cell viability assay.

RD = assay: cells; format: functional, cell-based; conditions: Homo sapiens
Description: SANGER: Inhibition of human RD cell growth in a cell viability assay.

RPMI 8402 = assay: SANGER: Inhibition of human RPMI-8402 cell growth in a cell viability assay.; format: functional, cell-based
SBC-5 = assay: cells; format: functional, cell-based; conditions: Homo sapiens;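 also: cell viability assay read-out, IC50 is the concentration that inhibits growth of the cells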
Description: SANGER: Inhibition of human SBC-5 cell growth in a cell viability assay.

KYSE-270 = assay: cells; format: functional, cell-based; conditions: Homo sapiens;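 also: cell growth inhibition measured with a viability assay in the human KYSE-270 line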
Description: SANGER: Inhibition of human KYSE-270 cell growth in a cell viability assay.

CAL-72 = assay: cells; format: functional, cell-based; conditions: Homo sapiens;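 also: cell viability assay measuring inhibition of proliferation in the CAL-72 cell line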
Description: SANGER: Inhibition of human CAL-72 cell growth in a cell viability assay.

TCC-SUP = assay: cells; format: functional, cell-based; conditions: Homo sapiens;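 also: growth inhibition of TCC-SUP cells, read out with a cell viability assay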
Description: SANGER: Inhibition of human TCCSUP cell growth in a cell viability assay.

EHEB = assay: cells; format: functional, cell-based; conditions: Homo sapiens;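 also: growth inhibition of human EHEB cells, read out with a cell viability assay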
Description: SANGER: Inhibition of human EHEB cell growth in a cell viability assay.

EB2 = assay: cells; format: functional, cell-based; conditions: Homo sapiens;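 also: growth inhibition of EB2 cells, read out with a cell viability assay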
Description: SANGER: Inhibition of human EB2 cell growth in a cell viability assay.

HCC1419 = assay: cells; format: functional, cell-based; conditions: Homo sapiens;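 also: growth inhibition of human HCC1419 cells, read out as cell viability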
Description: SANGER: Inhibition of human HCC1419 cell growth in a cell viability assay.

CHL-1 = assay: cells; format: functional, cell-based; conditions: Homo sapiens;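 also: cell growth inhibition, read out with a cell viability assay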
Description: SANGER: Inhibition of human CHL-1 cell growth in a cell viability assay.

IGROV-1 = assay: cells; format: functional, cell-based; conditions: Homo sapiens;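 also: reduction of IGROV-1 cell growth, read out with a viability assay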
Description: SANGER: Inhibition of human IGROV-1 cell growth in a cell viability assay.

Hs-578T = assay: cells; format: functional, cell-based; conditions: Homo sapiens
Description: SANGER: Inhibition of human Hs-578-T cell growth in a cell viability assay.

SNU-449 = assay: cells; format: functional, cell-based; conditions: Homo sapiens
Description: SANGER: Inhibition of human SNU-449 cell growth in a cell viability assay.

HPAF-II = assay: cells; format: functional, cell-based; conditions: Homo sapiens;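 also: growth inhibition of HPAF-II cells, read out with a cell viability assay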
Description: SANGER: Inhibition of human HPAF-II cell growth in a cell viability assay.

Huh-7 = assay: cells; format: functional, cell-based; conditions: Homo sapiens;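 also: HuH-7 cell growth inhibition, read out with a cell viability assay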
Description: SANGER: Inhibition of human HuH-7 cell growth in a cell viability assay.

HT-1376 = assay: cells; format: functional, cell-based; conditions: Homo sapiens
Description: SANGER: Inhibition of human HT-1376 cell growth in a cell viability assay.

NCI-H322M = assay: cells; format: functional, cell-based; conditions: Homo sapiens;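 also: cell viability assay measuring inhibition of growth of human NCI-H322M cells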
Description: SANGER: Inhibition of human NCI-H322M cell growth in a cell viability assay.

MONO-MAC-6 = assay: cells; format: functional, cell-based; conditions: Homo sapiens;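 also: cell viability assay measuring growth inhibition of human MONO-MAC-6 cells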
Description: SANGER: Inhibition of human MONO-MAC-6 cell growth in a cell viability assay.

HMV-2 cell line = assay: cells; format: functional, cell-based; conditions: Homo sapiens;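 also: growth inhibition of HMV-II cells, read out with a cell viability assay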
Description: SANGER: Inhibition of human HMV-II cell growth in a cell viability assay.

MG-63 = assay: cells; format: functional, cell-based; conditions: Homo sapiens;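 also: growth inhibition of human MG-63 cells, read out with a cell viability assay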
Description: SANGER: Inhibition of human MG-63 cell growth in a cell viability assay.

SW756 = assay: cells; format: functional, cell-based; conditions: Homo sapiens;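 also: growth inhibition of human SW756 cells, read out with a cell viability assay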
Description: SANGER: Inhibition of human SW756 cell growth in a cell viability assay.

LB647-SCLC = assay: cells; format: functional, cell-based; conditions: Homo sapiens;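 also: cell growth inhibition, read out by a viability assay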
Description: SANGER: Inhibition of human LB647-SCLC cell growth in a cell viability assay.

VMRC-RCZ = assay: cells; format: functional, cell-based; conditions: Homo sapiens
Description: SANGER: Inhibition of human VMRC-RCZ cell growth in a cell viability assay.

MHH-ES-1 = assay: cells; format: functional, cell-based; conditions: Homo sapiens
Description: SANGER: Inhibition of human MHH-ES-1 cell growth in a cell viability assay.

NCI-H2170 = assay: cells; format: functional, cell-based; conditions: Homo sapiens;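 also: cell viability assay measuring growth inhibition of human NCI-H2170 cancer cells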
Description: SANGER: Inhibition of human NCI-H2170 cell growth in a cell viability assay.

A-431 = assay: cells; format: functional, cell-based; conditions: Homo sapiens;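 also: growth inhibition of A-431 cells, determined with a cell viability read-out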
Description: SANGER: Inhibition of human A431 cell growth in a cell viability assay.

SAS = assay: cells; format: functional, cell-based; conditions: Homo sapiens;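 also: growth inhibition of SAS cells, read out with a cell viability assay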
Description: SANGER: Inhibition of human SAS cell growth in a cell viability assay.

23132-87 = assay: cells; format: functional, cell-based; conditions: Homo sapiens
Description: SANGER: Inhibition of human 23132-87 cell growth in a cell viability assay.

MDA-MB-175-VII = assay: cells; format: functional, cell-based; conditions: Homo sapiens
UO-31 = assay: cells; format: functional, cell-based; conditions: Homo sapiens
Description: SANGER: Inhibition of human U031 cell growth in a cell viability assay.

KYSE-450 = assay: cells; format: functional, cell-based; conditions: Homo sapiens;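 also: cell growth inhibition measured by a viability assay in human KYSE-450 cells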
Description: SANGER: Inhibition of human KYSE-450 cell growth in a cell viability assay.

COR-L105 = assay: cells; format: functional, cell-based; conditions: Homo sapiens
Description: SANGER: Inhibition of human COR-L105 cell growth in a cell viability assay.

NCI-H2052 = assay: cells; format: functional, cell-based; conditions: Homo sapiens;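 also: growth inhibition of NCI-H2052 cells, read out with a cell viability assay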
Description: SANGER: Inhibition of human NCI-H2052 cell growth in a cell viability assay.

HT-3 = assay: cells; format: functional, cell-based; conditions: Homo sapiens;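 also: growth inhibition measured with a cell viability readout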
Description: SANGER: Inhibition of human HT-3 cell growth in a cell viability assay.

LOUCY = assay: cells; format: functional, cell-based; conditions: Homo sapiens;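 also: growth inhibition of human LOUCY cells, read out with a cell viability assay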
Description: SANGER: Inhibition of human LOUCY cell growth in a cell viability assay.

NB14 = assay: cells; format: functional, cell-based; conditions: Homo sapiens;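 also: growth inhibition of NB14 cells measured with a cell viability assay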
Description: SANGER: Inhibition of human NB14 cell growth in a cell viability assay.

`C/C(O)=C(\C#N)C(=O)Nc1cc(Br)ccc1Br` was tested, and the IC50 (CAL-120) was over 16000 nM, the IC50 (CAMA-1) was over 16000 nM and the IC50 (DBTRG-05MG) was over 16000 nM. It also gave an IC50 (CAL-12T) of over 16000 nM, an IC50 (SW1783) of over 16000 nM and an IC50 (SNU-387) of over 16000 nM. The IC50 (OPM-2) was over 16000 nM, the IC50 (BOKU) was over 16000 nM and the IC50 (RPMI-2650) was over 16000 nM. The IC50 (U2OS) was over 16000 nM, the IC50 (SW-620) was over 16000 nM and the IC50 (TE-15) was over 16000 nM. The IC50 (EVSA-T) was over 16000 nM, the IC50 (OVCAR-8) was over 16000 nM and the IC50 (LCLC-103H cell line) was over 16000 nM. For the same compound, the IC50 (CAL-148) was over 16000 nM, the IC50 (LK-2) was over 16000 nM and the IC50 (JEG-3) was over 16000 nM. It also gave an IC50 (CAL-85-1) of over 16000 nM, an IC50 (MKN-45) of over 16000 nM and an IC50 (SW626) of over 16000 nM. The IC50 (SCLC-21H) was over 16000 nM, the IC50 (IST-SL2) was over 16000 nM and the IC50 (SK-MEL-24) was over 16000 nM. The IC50 (ASPC1) was over 16000 nM, the IC50 (TGW) was over 16000 nM and the IC50 (SK-MEL3) was over 16000 nM. The IC50 (NCI-H2009) was over 16000 nM, the IC50 (RD) was over 16000 nM and the IC50 (RPMI 8402) was over 16000 nM. It also gave an IC50 (SBC-5) of over 16000 nM, an IC50 (KYSE-270) of over 16000 nM and an IC50 (CAL-72) of over 16000 nM. It also gave an IC50 (TCC-SUP) of over 16000 nM, an IC50 (EHEB) of over 16000 nM and an IC50 (EB2) of over 16000 nM. It also gave an IC50 (HCC1419) of over 16000 nM, an IC50 (CHL-1) of over 16000 nM and an IC50 (IGROV-1) of over 16000 nM. For the same compound, the IC50 (Hs-578T) was over 16000 nM, the IC50 (SNU-449) was over 16000 nM and the IC50 (HPAF-II) was over 16000 nM. For the same compound, the IC50 (Huh-7) was over 16000 nM, the IC50 (HT-1376) was over 16000 nM and the IC50 (NCI-H322M) was over 16000 nM. The IC50 (MONO-MAC-6) was over 16000 nM, the IC50 (HMV-2 cell line) was over 16000 nM and the IC50 (MG-63) was over 16000 nM. For the same compound, the IC50 (SW756) was over 16000 nM, the IC50 (LB647-SCLC) was over 16000 nM and the IC50 (VMRC-RCZ) was over 16000 nM. It also gave an IC50 (MHH-ES-1) of over 16000 nM, an IC50 (NCI-H2170) of over 16000 nM and an IC50 (A-431) of over 16000 nM. It also gave an IC50 (SAS) of over 16000 nM, an IC50 (23132-87) of over 16000 nM and an IC50 (MDA-MB-175-VII) of over 16000 nM. For the same compound, the IC50 (UO-31) was over 16000 nM, the IC50 (KYSE-450) was over 16000 nM and the IC50 (COR-L105) was over 16000 nM. It also gave an IC50 (NCI-H2052) of over 16000 nM and an IC50 (HT-3) of over 16000 nM.

For `Cc1n[nH]c2ccc(-c3cncc(OC[C@@H](N)Cc4c[nH]c5ccccc45)c3)cc12` [A-443654], the IC50 (OPM-2) was 314 nM, the IC50 (BOKU) was over 1020 nM and the IC50 (TE-15) was 59.1 nM. The IC50 (EVSA-T) was 220 nM, the IC50 (CAL-148) was 88.3 nM and the IC50 (SCLC-21H) was over 1020 nM. For the same compound, the IC50 (IST-SL2) was 194 nM, the IC50 (TGW) was 569 nM and the IC50 (RPMI 8402) was 184 nM. For the same compound, the IC50 (EHEB) was 402 nM, the IC50 (EB2) was over 1020 nM and the IC50 (LOUCY) was 158 nM. It also gave an IC50 (NB14) of over 1020 nM, an IC50 (NCI-H322M) of over 1020 nM and an IC50 (MONO-MAC-6) of 77.2 nM. For the same compound, the IC50 (LB647-SCLC) was 224 nM.

`Cc1nc(Nc2ncc(C(=O)Nc3c(C)cccc3Cl)s2)cc(N2CCN(CCO)CC2)n1` [DASATINIB] gave an IC50 (OPM-2) of over 1280 nM, an IC50 (BOKU) of 491 nM and an IC50 (TE-15) of 5.89 nM. It also gave an IC50 (EVSA-T) of over 1280 nM, an IC50 (CAL-148) of over 1280 nM and an IC50 (SCLC-21H) of over 1280 nM. It also gave an IC50 (IST-SL2) of 503 nM, an IC50 (TGW) of over 1280 nM and an IC50 (RPMI 8402) of over 1280 nM. It also gave an IC50 (EHEB) of over 1280 nM, an IC50 (EB2) of over 1280 nM and an IC50 (LOUCY) of over 1280 nM. For the same compound, the IC50 (NB14) was over 1280 nM, the IC50 (NCI-H322M) was over 1280 nM and the IC50 (MONO-MAC-6) was over 1280 nM. It also gave an IC50 (LB647-SCLC) of over 1280 nM.

Compound `CCn1c(-c2nonc2N)nc2cnc(Oc3cccc(NC(=O)c4ccc(OCCN5CCOCC5)cc4)c3)cc21` [GSK-269962A] has an IC50 (OPM-2) of over 2500 nM, an IC50 (TE-15) of over 2500 nM and an IC50 (EVSA-T) of over 2500 nM. It also gave an IC50 (CAL-148) of over 2500 nM, an IC50 (SCLC-21H) of over 2500 nM and an IC50 (IST-SL2) of over 2500 nM. The IC50 (TGW) was over 2500 nM, the IC50 (RPMI 8402) was over 2500 nM and the IC50 (EB2) was over 2500 nM. For the same compound, the IC50 (LOUCY) was 1150 nM, the IC50 (NB14) was over 2500 nM and the IC50 (NCI-H322M) was over 2500 nM. It also gave an IC50 (MONO-MAC-6) of over 2500 nM and an IC50 (LB647-SCLC) of over 2500 nM.

`Cc1[nH]c(/C=C2\C(=O)Nc3ccc(S(=O)(=O)Cc4c(Cl)cccc4Cl)cc32)c(C)c1C(=O)N1CCC[C@@H]1CN1CCCC1` [PHA-665752] was tested, and the IC50 (OPM-2) was over 2000 nM, the IC50 (BOKU) was over 2000 nM and the IC50 (TE-15) was over 2000 nM. It also gave an IC50 (EVSA-T) of over 2000 nM, an IC50 (CAL-148) of over 2000 nM and an IC50 (SCLC-21H) of over 2000 nM. It also gave an IC50 (IST-SL2) of over 2000 nM, an IC50 (TGW) of over 2000 nM and an IC50 (RPMI 8402) of over 2000 nM. For the same compound, the IC50 (EHEB) was over 2000 nM, the IC50 (EB2) was over 2000 nM and the IC50 (LOUCY) was over 2000 nM. It also gave an IC50 (NB14) of over 2000 nM, an IC50 (NCI-H322M) of over 2000 nM and an IC50 (MONO-MAC-6) of over 2000 nM. The IC50 (LB647-SCLC) was over 2000 nM.
